{"source": "patent US5965544A", "about": "“Synthetic multivalent sLe^x containing polylactosamines and methods for use” (Glycim Oy, priority 1996, dated 1999)", "key": {"[1]": {"test_system": "adhesion", "settings": "Stoolman et al. 1984; cited from earlier work"}, "[2]": {"test_system": "L-selectin-dependent lymphocyte adhesion to cardiac endothelium", "settings": "lymphocytes and rejecting rat heart endothelium, Turunen et al. 1995; cited from earlier work"}, "[3]": {"test_system": "L-selectin-dependent lymphocyte adhesion to cardiac endothelium", "experiment": "Stamper-Woodruff binding assay: lymphocyte adhesion to endothelium of rejecting cardiac transplants", "type": "cell-based, rat", "settings": "rejecting cardiac allografts", "description": "The inhibition of lymphocyte adhesion to cardiac endothelium during acute rejection episodes by oligosaccharides was examined using the family of oligosaccharides synthesized by enzyme-aided synthesis in Example 2: monovalent sLex tetrasaccharide (1), divalent sLex decasaccharide (4) and tetravalent sLex 22-meric oligosaccharide (9) and their non-fucosylated sialyl lactosamine analogues (3, 8). […] Concomitantly the non-fucosylated sialyl-lactosamine glycans were without effect.\nIn parallel experiments the capacity of the tetravalent sLex glycans 9 and 17, and of the nonfucosylated analogs glycan 8 and glycan 16, were compared in inhibiting L-selectin-dependent lymphocyte adhesion to cardiac endothelium during acute rejection. The lymphocytes were preincubated for 30 min with varying concentrations of the oligosaccharides and used thereafter in the Stamper-Woodruff binding assay in the incubation media as described in Example 1."}, "[4]": {"biological_target": "L-selectin-dependent lymphocyte adhesion to peritubular capillary endothelium (PTCE)", "experiment": "Stamper-Woodruff binding assay: lymphocyte adhesion to peritubular capillary endothelium of rejecting kidney allografts", "settings": "for IC50: read-out: IC50, inhibitory concentration preventing 50% of binding, L-selectin-dependent lymphocyte binding, rejecting rat kidney transplant; for inhibition of lymphocyte binding to PTCE (in words) / inhibitory capacity compared with other oligosaccharides (in words): rejecting kidney allografts", "quoted_text": "The animal models for cardiac transplant rejection and kidney transplant rejection utilized inbred WF (RT1^v) and DA (RT1^a) rat strains that were maintained in a colony and regularly tested for intrastrain acceptance of transplants as well as for the absence of intrastrain mixed lymphocyte culture. DA transplants into WF recipients were allografts, WF grafts to WF and DA grafts to DA served as syngeneic controls.\nSmall pieces of the removed syngeneic (DA to DA and WF to WF), allogeneic (DA to WF) transplants were mounted in Tissue Tek medium (Lab-Tek Productions, Naperville, Ill.) and snapfrozen in liquid nitrogen. Eight μm thick frozen sections were prepared within one hour prior to the use of the sections in the lymphocyte--endothelium binding assay (Renkonen, R. et al., Transplantation 47:577-579 (1989); Renkonen, R. et al., Am. J. Pathol. 137:643-651 (1990); Turunen J. P. et al., Transplantation 54:1053-1058 (1992); Turunen, J. P. et al., Eur. J. Immunol. 24:1130-1136 (1994); Turunen, J. P. et al., J. Exp. Med., 182:1133-1142 (1995)).\nSingle cell suspensions of mesenterical lymph node lymphocytes were made by mechanical disaggregation in RPMI 1640 medium (Gibco, Grand Island, N.Y.) supplemented with Hepes (25 mM) and 0.5% fetal calf serum and the cells were passed through a 50 μm pore size mesh. Over 99% of the cells were lymphocytes, and the lymphocyte population consisted of 80-90% CD3-positive T cells, 50-60% CD4-positive T cells, 25-35% CD8-positive T cells and 10-20% CD19-positive B cells, as analyzed by flow cytometric analyses and immunoperoxidase stainings from cytocentrifuge preparations.\n3×10^6 cells in 100 μl of the medium were plated on top of the tissue sections using a wax pen circle to avoid escape of the fluid. The sections were rotated horizontally on a shaker at 60 rpm for 30 minutes at +4° C. After incubation, the medium was gently tapped away by an absorbent paper and the slides were fixed in 1.5% cold glutaraldehyde overnight. The slides were stained with thionine for 30 min. The excess thionine was gently washed away from the slides in PBS, and the slides were mounted with PBS-glycerol (1:1) or Aquamount Mountant, (BHD Limited, Poole, England). From these preparations the number of lymphocytes bound to various structures was determined. At least 10-20 high power fields were analyzed from each sample and 3-4 animals were included in each group.\nThe oligosaccharides were dissolved in the binding buffer, and the lymphocytes were incubated in these solutions for 30 min in +4° C. Thereafter, the lymphocytes at the saccharide solutions were added to the Stamper-Woodruff binding assay without further washings and the assay was conducted as described above.\nThe lymphocytes were, or were not, pretreated for 30 min with various oligosaccharide constructs and added to the Stamper-Woodruff binding assay. After a 30 min binding assay the loose cells were washed away and the number of bound cells were determined.\nThe binding assays consisted of three experiments performed on separate days."}, "[5]": {"test_system": "mouse sperm adhesion to eggs", "settings": "Litscher et al. 1995; cited from earlier work"}, "[6]": {"test_system": "P-selectin mediated inflammation", "settings": "low concentrations; cited from earlier work"}, "[7]": {"test_system": "inflammation", "settings": "cited from earlier work"}, "[8]": {"test_system": "CD22", "settings": "cited from earlier work"}, "[9]": {"settings": "listed as disialylated and difucosylated branched polylactosamine decasaccharide"}}, "note": "Entries after “also recorded” stand apart in the source; their conditions may differ. Like-named read-outs stand apart in the source and are kept apart here.", "data": [{"compound": "fucoidin", "values": [{"measurement": "concentration that blocked adhesion", "setting": "[1]", "result": "in the nM range"}]}, {"compound": "NeuAcα2-3Galβ1-4(Fucα1-3)GlcNAcβ1-3(NeuAcα2-3Galβ1-4(Fucα1-3)GlcNAcβ1-6)Galβ1-4GlcNAc [Glycan 4]", "values": [{"measurement": "published Stamper-Woodruff data compared with the present ones", "setting": "[2]", "result": "quite similar to the present ones"}, {"measurement": "inhibition of lymphocyte adhesion to cardiac endothelium (in words)", "setting": "[3]", "result": "significantly reduce lymphocyte binding"}, {"measurement": "IC50", "setting": "[4]", "result": 1000, "unit": "nM"}, {"measurement": "IC50", "setting": "[4]; [9]", "result": 500, "unit": "nM"}, {"measurement": "inhibition of lymphocyte binding to PTCE (in words)", "setting": "[4]", "result": "able to inhibit the lymphocyte binding to PTCE significantly"}, {"measurement": "inhibitory capacity compared with other oligosaccharides (in words)", "setting": "[4]", "result": "slightly weaker inhibitor than 28; also recorded: lesser inhibitory capacity than the alditol 28"}, {"measurement": "inhibitory capacity compared with other oligosaccharides (in words)", "setting": "[4]; [9]", "result": "less effective inhibitor"}]}, {"compound": "NeuAcα2-3Galβ1-4GlcNAcβ1-3(NeuAcα2-3Galβ1-4GlcNAcβ1-6)Galβ1-4GlcNAcβ1-6(Galβ1-3)GalNAc-ol [Glycan 26]", "values": [{"measurement": "inhibition of lymphocyte binding to PTCE (in words)", "setting": "[4]", "result": "practically devoid of inhibitory activity; also recorded: did not inhibit the lymphocyte binding at all; also recorded: did not possess any inhibitory activity"}, {"measurement": "inhibition of lymphocyte binding to PTCE (in words)", "setting": "[4]; listed as non-fucosylated O-glycosidic oligosaccharide alditol", "result": "did not possess any inhibitory activity"}]}, {"compound": "CC(=O)NC1C(O)OC(CO)C(OC2OC(CO)C(O)C(OC3OC(CO)C(OC4OC(CO)C(O)C(OC5OC(CO)C(O)C(O)C5O)C4O)C(O)C3NC(C)=O)C2O)C1O", "note": "(stereo not drawn) [Galα1-3Galβ1-4GlcNAcβ1-3Galβ1-4GlcNAc]", "values": [{"measurement": "inhibition of mouse sperm adhesion to eggs", "setting": "[5]", "result": "does not"}]}, {"compound": "NeuAcα2-3Galβ1-4(Fucα1-3)GlcNAc [Glycan 1]", "values": [{"measurement": "inhibition of short-term P-selectin mediated inflammation", "setting": "[6]", "result": "inhibiting short-term P-selectin mediated inflammation"}, {"measurement": "published Stamper-Woodruff data compared with the present ones", "setting": "[2]", "result": "quite similar to the present ones"}, {"measurement": "anti-inflammatory activity in vivo", "setting": "[7]", "result": "anti-inflammatory activity in vivo"}, {"measurement": "inhibition of lymphocyte adhesion to cardiac endothelium (in words)", "setting": "[3]", "result": "significantly reduce lymphocyte binding"}, {"measurement": "decrease of lymphocyte adhesion / prevented L-selectin-dependent lymphocyte binding", "setting": "[4]; at 0.5 μM", "result": 39, "unit": "%"}, {"measurement": "inhibition of lymphocyte binding to PTCE (in words)", "setting": "[4]", "result": "able to inhibit the lymphocyte binding to PTCE significantly"}]}, {"compound": "CC(=O)N[C@H]1[C@H]([C@H](O)[C@H](O)CO)O[C@@](OC[C@H]2O[C@@H](O[C@H]3[C@H](O)[C@@H](NC(C)=O)C(O)O[C@@H]3CO)[C@H](O)[C@@H](O)[C@H]2O)(C(=O)O)C[C@@H]1O", "note": "(stereo partly drawn) [NeuAca2-6GalB1-4GlcNAc]", "values": [{"measurement": "binding / affinity to CD22", "setting": "[8]", "result": "binds specifically"}]}]}
